The record followed here is ChEMBL document CHEMBL4184302 (Bioorg Med Chem Lett, 2018).

The source made the active and inactive calls. The calls are words filed in the database; no cut-off is given here.

Assay [1] is described as follows: Inhibition of bacterial N-terminal His6-tagged NDM1 expressed in Escherichia coli BL21 DE3 pLysS cells using FC-5 as substrate pretreated for 10 mins followed by substrate addition measured every 60 secs by fluorescence assay. More on the design: species or system Bacteria.
A short description of assay [2]: Inhibition of bacterial N-terminal His6-tagged VIM2 (27 to 266 residues) expressed in Escherichia coli BL21 DE3 pLysS cells using FC-5 as substrate pretreated for 10 mins followed by substrate addition measured every 60 secs by fluorescence assay. Set-up: species or system Bacteria.
Assay [3] can be described thus: Inhibition of bacterial N-terminal His6-tagged TEM1 expressed in Escherichia coli BL21 DE3 pLysS cells using FC-5 as substrate pretreated for 10 mins followed by substrate addition measured every 60 secs by fluorescence assay. More on the design: species or system Bacteria.
The test system of assay [4] is Bacteria. In words: Reversible inhibition of bacterial N-terminal His6-tagged VIM2 (27 to 266 residues) expressed in Escherichia coli BL21 DE3 pLysS cells at 11 uM using FC-5 as substrate pretreated for 30 mins followed by substrate addition by jump-dilution method.
Assay [5] can be described thus: Inhibition of bacterial N-terminal His6-tagged VIM2 (27 to 266 residues) expressed in Escherichia coli BL21 DE3 pLysS cells using FC-5 as substrate pretreated for 10 mins followed by substrate addition by fluorescence assay. Set-up: species or system Bacteria.
In assay [6] the test system is Escherichia coli. Briefly: Potentiation of meropenem-induced antimicrobial activity against Escherichia coli BL21(DE3) harboring VIM-2 assessed as meropenem MIC at 100 uM measured after 16 to 20 hrs by microdilution broth method (reference value: 16 mg/L). In kind it is functional. Background: Dilution methods test growth across graded concentrations, often in twofold steps.

Assay [7] deals with Escherichia coli. In words: Potentiation of meropenem-induced antimicrobial activity against Escherichia coli BL21(DE3) assessed as meropenem MIC at 50 uM measured after 16 to 20 hrs by microdilution broth method (reference value: <0.125 mg/L). It counts as functional.
In assay [8] the test system is Escherichia coli. Briefly: Potentiation of meropenem-induced antimicrobial activity against Escherichia coli BL21(DE3) harboring VIM-2 assessed as meropenem MIC at 25 uM measured after 16 to 20 hrs by microdilution broth method (reference value: 16 mg/L). In kind it is functional.
In assay [9] the test system is Escherichia coli. In words: Potentiation of meropenem-induced antimicrobial activity against Escherichia coli BL21(DE3) assessed as meropenem MIC at 10 uM measured after 16 to 20 hrs by microdilution broth method (reference value: <0.125 mg/L). It counts as functional.
Assay [10] deals with Escherichia coli. In words: Potentiation of meropenem-induced antimicrobial activity against Escherichia coli BL21(DE3) harboring VIM-2 assessed as meropenem MIC at 10 uM measured after 16 to 20 hrs by microdilution broth method (reference value: 16 mg/L). In kind it is functional.
The subject of assay [11] is Escherichia coli. In words: Potentiation of meropenem-induced antimicrobial activity against Escherichia coli BL21(DE3) harboring VIM-2 assessed as meropenem MIC at 50 uM measured after 16 to 20 hrs by microdilution broth method (reference value: 16 mg/L). It counts as functional.
The test system of assay [12] is Escherichia coli. Briefly: Potentiation of meropenem-induced antimicrobial activity against Escherichia coli BL21(DE3) assessed as meropenem MIC at 25 uM measured after 16 to 20 hrs by microdilution broth method (reference value: <0.125 mg/L). It counts as functional.
Assay [13] relates to Escherichia coli. Briefly: Potentiation of meropenem-induced antimicrobial activity against Escherichia coli BL21(DE3) assessed as meropenem MIC at 100 uM measured after 16 to 20 hrs by microdilution broth method (reference value: <0.125 mg/L). It counts as functional.
For assay [14], the system named is Bacteria. In words: Competitive inhibition of bacterial N-terminal His6-tagged VIM2 (27 to 266 residues) expressed in Escherichia coli BL21 DE3 pLysS cells using varying levels of FC-5 as substrate by fluorescence assay.
In assay [15] the test system is Bacteria. Briefly: Reversible inhibition of bacterial N-terminal His6-tagged VIM2 (27 to 266 residues) expressed in Escherichia coli BL21 DE3 pLysS cells at 415 uM using FC-5 as substrate pretreated for 30 mins followed by substrate addition by jump-dilution method.
A short description of assay [16]: Binding affinity to bacterial N-terminal His6-tagged VIM2 (27 to 266 residues) expressed in Escherichia coli BL21 DE3 pLysS cells by isothermal calorimetric method. Set-up: species or system Bacteria. Background: Isothermal titration calorimetry measures the heat released or taken up as one component is titrated into another.

Take `O=C(O)[C@H](O)Cc1ccc(O)c(O)c1`: the IC50 (as a rule, the concentration that inhibits the measured activity by half) in assay [1] was over 600 µM; in assay [2], over 600 µM; in assay [3] it was 189 µM. In addition, the pIC50 (usually the IC50 on a negative log10 scale, so that one unit is a factor of ten) in assay [1] is given as under 3.2; in [2], under 3.2; in [3], 3.72.

`C[C@H](CS)C(=O)N1CCC[C@H]1C(=O)O` [CAPTOPRIL]: the inhibition entry with Bacteria [4] was “Active”. The IC50 in assay [5] was found to be 2.47 µM.

As to `O=C(O)/C=C/c1ccc(O)c(O)c1` [CAFFEIC ACID], the IC50 in assay [1], in assay [2] and in assay [3] was over 600 µM in each case. For the same compound, the negative logarithm of the IC50 (pIC50) in assay [1], in assay [2] and in assay [3] was under 3.2 in each case.

On to `O=C(/C=C/c1ccc(O)c(O)c1/C=C/c1ccc(O)c(O)c1)O[C@H](Cc1ccc(O)c(O)c1)C(=O)O` [SALVIANOLIC ACID A], for which the IC50 was found to be 160 µM in assay [1], 27.2 µM in assay [2] and 34.3 µM in [3]. The pIC50 in assay [1] was 3.75 to 3.79; in assay [2], 4.57; in [3], 4.46. Also, the minimum inhibitory concentration (MIC) (as a rule, the lowest concentration that inhibits growth of the organism) in the assay with Escherichia coli [6] was 4 µg/mL; with Escherichia coli [7], under 0.125 µg/mL; in the assay with Escherichia coli [8] it was 16 µg/mL; with Escherichia coli [9], under 0.125 µg/mL; in the assay on Escherichia coli [10] it was 16 µg/mL; with Escherichia coli [11] it was 4 µg/mL. Moreover, the MIC with Escherichia coli [12] and in the assay on Escherichia coli [13] was under 0.125 µg/mL each time.

With `O=C(/C=C/c1ccc(O)c(O)c1)O[C@H](Cc1ccc(O)c(O)c1)C(=O)O` [ROSMARINIC ACID], the IC50 in [1] is over 600 µM; in assay [2], 41.5 µM; in assay [3], over 600 µM. For the same compound, the values for the pIC50 in assay [1], in [2] and in [3] were under 3.2, 4.38 and under 3.2, respectively. Besides, the MIC with Escherichia coli [6] was 8 µg/mL; in the assay on Escherichia coli [7], under 0.125 µg/mL; with Escherichia coli [8] it was 16 µg/mL; with Escherichia coli [9], under 0.125 µg/mL; in the assay with Escherichia coli [10], 16 µg/mL; in the assay with Escherichia coli [11], 8 µg/mL. The MIC in the assay with Escherichia coli [12] and in the assay on Escherichia coli [13] was under 0.125 µg/mL throughout. Further, the inhibition result in the assay with Bacteria [14] is “Dose-dependent effect”. Further, the inhibition result in the assay on Bacteria [15] is “Active”. Besides, the Kd (usually the constant that tells how readily two partners part at equilibrium) in [16] stood at 10.2 µM.
